Data: patent US20250120948A1, “Small Molecules G(alpha)I2 Inhibitors and Combination With Anticancer Drugs and Use Thereof” (Georgia Tech Research Corporation, priority 2023, published 2025)

Experiments:
[1] = Stability in human liver microsomes; type: in vitro ADME
Method: (§1) On the strength of their potency, the stability of 6, 7 and 10 was determined in human and mouse plasma and liver microsomes.

PC3 cells = experiment: Transwell migration assay in PC3 prostate cancer cells; type: cell-based, human; conditions: for effect on PC3 cell migration: compounds tested at 0.1 to 100 μM, compared with 14; for block of SAHA-stimulated cell migration in PC3 cells / block of docetaxel-stimulated cell migration in PC3 cells: second generation inhibitors at 20 μM, simultaneous treatment; for effect of chemotherapeutic drug on cell migration in PC3 cells: drug alone
Method: (§2) In vitro transwell migration assays were conducted as described previously (Caggia et al., “Novel Role of Gialpha2 in Cell Migration: Downstream of PI3-kinase-AKT and RacI in Prostate Cancer Cells,” J Cell Physiol, 234:802-815 (2018); Caggia et al., “Small Molecule Inhibitors Targeting Galphai2 Protein Attenuate Migration of Cancer Cells,” Cancers (Basel), 12(6):1631 (2020)). Briefly, the outside of the transwell inserts (BD Biosciences, San Jose, CA) were coated with 50 μl of rat tail collagen ([…]; BD Biosciences, San Jose, CA) overnight at 4° C. The next day, 50 μl of the aforementioned rat tail collagen were added for 1 hour at room temperature into the transwell inserts, to coat the inside of the membranes. DU145, PC3 and LNCaP cells were trypsinized and suspended at the appropriate density (3×10^5 cells/insert for DU145 and PC3, and 5×10^5 cells/insert for LNCaP) in MEM or RPMI containing 0.2% BSA (Sigma-Aldrich, St. Louis, MO). Chemoattractant solution, used as positive control, was made by diluting the epidermal growth factor (EGF) (10 ng/ml) into MEM (PC3 and DU145) or RPMI (LNCaP) supplemented with 0.2% BSA. Media containing 0.2% BSA served as a control. Control and EGF solutions ([…]) were added into the wells of a 24-well plate. Aliquots of 100 μl of cell suspensions, treated with or without the different compounds at several concentrations, were loaded into the transwell inserts and the plates were incubated at 37° C. for 5 hours (DU145 and PC3) or 24 hours (LNCaP). The cells inside the transwell inserts were removed by cotton swabs, and the cleaned inserts were fixed with 350 μl of 4% paraformaldehyde (pH 7.5) for 20 minutes at room temperature. Cells that had migrated to the outside of the transwell insert membrane were stained with 3 ng/ml of DAPI solution (Thermo Fisher Scientific, Eugene, OR) and images of five non-overlapping fields were captured using Axiovert 200M, Carl Zeiss (Thornwood, NY) microscope. The number of stained nuclei were determined with automatic counting using image analysis software (ZEN 2012; Carl Zeiss). Results were expressed as migration index defined as the average number of cells per field for test substance/the average number of cells per field for the medium control.
The effects of the newly synthesized compounds on the migratory behavior of PC3 cells were investigated in transwell migration assays as inventors have done before (Caggia et al., “Small Molecule Inhibitors Targeting Galphai2 Protein Attenuate Migration of Cancer Cells,” Cancers (Basel), 12(6):1631 (2020)). Compounds were tested at a concentration range of 0.1 to 100 μM. […] To potentially obtain insight into the disparity in their Gαi inhibition activities, molecular docking was performed on the enantiomers of 6 (6-R and 6-S) and 15 (15-R and 15-S). […] This slightly weaker binding affinity may partially explain the disproportionately weaker potency of 15 relative to 6. Other molecular factors, such as those which led to the attenuated potency observed with amino- to ether-group switch in the 7/10 pair, may contribute to the reduced potency of 15. Finally, most of these compounds have no effects on the morphology of PC3 cells or viability of several cancer cells at the concentrations as high as 100 μM.

[2] = Stability in mouse liver microsomes; type: in vitro ADME
Method: as §1

LNCaP cells = experiment: Transwell migration assay in LNCaP prostate cancer cells; type: cell-based, human; conditions: drug alone; for effect of chemotherapeutic drug on cell migration in LNCaP cells: several concentrations, 24 hours
Method: as §2
To determine the effects of HDACi on prostate cancer cell migration, migration assays were performed in androgen receptor (AR)-positive LNCaP cells using several concentrations of SAHA (0.1, 0.25, 0.5, 1, 2, 4 μM), a commercially available HDACi. […] Inventors have previously developed a very potent HDACi inhibitor (SBI-I-19), coupled with an anti-androgen, enzalutamide, which selectively targets androgen sensitive prostate cancer cells for its cytotoxic effects (Gryder et al., “Selectively Targeting Prostate Cancer with Antiandrogen Equipped Histone Deacetylase Inhibitors,” ACS Chem Biol, 8:2550-2560 (2013)). The possible effects of different concentrations of SBI-I-19 on cell migration in LNCaP cells were determined.

DU145 cells = experiment: Transwell migration assay in DU145 prostate cancer cells; type: cell-based, human; conditions: drug alone
Method: In vitro transwell migration assays were conducted as described previously (Caggia et al., “Novel Role of Gialpha2 in Cell Migration: Downstream of PI3-kinase-AKT and RacI in Prostate Cancer Cells,” J Cell Physiol, 234:802-815 (2018); Caggia et al., “Small Molecule Inhibitors Targeting Galphai2 Protein Attenuate Migration of Cancer Cells,” Cancers (Basel), 12(6):1631 (2020)). Briefly, the outside of the transwell inserts (BD Biosciences, San Jose, CA) were coated with 50 μl of rat tail collagen ([…]; BD Biosciences, San Jose, CA) overnight at 4° C. The next day, 50 μl of the aforementioned rat tail collagen were added for 1 hour at room temperature into the transwell inserts, to coat the inside of the membranes. DU145, PC3 and LNCaP cells were trypsinized and suspended at the appropriate density (3×10^5 cells/insert for DU145 and PC3, and 5×10^5 cells/insert for LNCaP) in MEM or RPMI containing 0.2% BSA (Sigma-Aldrich, St. Louis, MO). Chemoattractant solution, used as positive control, was made by diluting the epidermal growth factor (EGF) (10 ng/ml) into MEM (PC3 and DU145) or RPMI (LNCaP) supplemented with 0.2% BSA. Media containing 0.2% BSA served as a control. Control and EGF solutions ([…]) were added into the wells of a 24-well plate. Aliquots of 100 μl of cell suspensions, treated with or without the different compounds at several concentrations, were loaded into the transwell inserts and the plates were incubated at 37° C. for 5 hours (DU145 and PC3) or 24 hours (LNCaP). […] The number of stained nuclei were determined with automatic counting using image analysis software (ZEN 2012; Carl Zeiss). Results were expressed as migration index defined as the average number of cells per field for test substance/the average number of cells per field for the medium control.
To determine whether the induction of cell migration by AR-antagonists and HDACi was limited to only AR-positive cells, the effects of anti-androgens and HDACi and docetaxel in AR-negative DU145 and PC3 cells were determined.

Question: For `CC(Nc1ccc(O)cc1)c1cc2ccccc2n1C` (racemic) [Compound 6, 4-((1-(1-methyl-1H-indol-2-yl)ethyl)amino)phenol], which “stability in liver microsomes” value [1] is on record?
Answer: The value was “robustly stable in both species”.

Question: What about the “block of stimulatory effects of Docetaxel on PC3 cell migration” value (PC3 cells; FIG. 13, concentration not given) of the same compound?
Answer: The value was “block the stimulatory effects of Docetaxel on PC3 cell migration”.

Question: And the “effect on PC3 cell migration” value (PC3 cells)?
Answer: The value was “more effective relative to 14”.

Question: And the “block of SAHA-stimulated cell migration in PC3 cells” value (PC3 cells)?
Answer: The value was “blocked the stimulatory effects of docetaxel and SAHA in PC3 cells”.

Question: And the “block of docetaxel-stimulated cell migration in PC3 cells” value (PC3 cells)?
Answer: Its value is “blocked the stimulatory effects of docetaxel and SAHA in PC3 cells”.

Question: And the “stability in liver microsomes” value [2]?
Answer: Its value is “robustly stable in both species”.

Question: For `CSc1ccc(NC(C)c2cc3ccccc3n2C)cc1` (racemic) [Compound 7, N-(1-(1-methyl-1H-indol-2-yl)ethyl)-4-(methylthio)aniline], which “stability in liver microsomes” value [1] is on record?
Answer: Its value is “only stable in the human microsome”.

Question: And the “block of stimulatory effects of EGF on PC3 cell migration” value (PC3 cells; EGF-stimulated)?
Answer: The value was “blocks the stimulatory effects of EFG on PC3 cell migration”.

Question: What about the “effect on PC3 cell migration” value (PC3 cells) of the same compound?
Answer: Its value is “more effective relative to 14”.

Question: And the “block of SAHA-stimulated cell migration in PC3 cells” value (PC3 cells)?
Answer: Its value is “blocked the stimulatory effects of docetaxel and SAHA in PC3 cells”.

Question: And the “block of docetaxel-stimulated cell migration in PC3 cells” value (PC3 cells)?
Answer: Its value is “blocked the stimulatory effects of docetaxel and SAHA in PC3 cells”.

Question: And the “stability in liver microsomes” value [2]?
Answer: The value was “only stable in the human microsome”.

Question: With `CC(Oc1ccc(S(C)(=O)=O)cc1)c1cc2ccccc2n1C` (racemic) [Compound 12, 1-methyl-2-(1-(4-(methylsulfonyl)phenoxy)ethyl)-1H-indole] as the compound, how does the “effect on PC3 cell migration” value (PC3 cells) read?
Answer: Its value is “less effective, eliciting reduced anti-migration activities relative to the other compounds”.

Question: With `CC(Oc1ccc(O)cc1)c1cc2ccccc2n1C` (racemic) [Compound 15, 4-(1-(1-methyl-1H-indol-2-yl)ethoxy)phenol] as the compound, how does the “effect on PC3 cell migration” value (PC3 cells) read?
Answer: Its value is “did not inhibit the migration of PC3 cells at the maximum concentration tested”.

Question: For `Cn1c(/C=N/c2ccc(O)cc2)cc2ccccc21` [Compound 3, (E)-4-(((1-methyl-1H-indol-2-yl)methylene)amino)phenol], which “effect on PC3 cell migration” value (PC3 cells) is on record?
Answer: Its value is “concentration dependent reduction of PC3 cell migration, but less efficiently relative to 14”.

Question: Which “effect on PC3 cell migration” value (PC3 cells) does the source give for `CSc1ccc(/N=C(\C)c2cc3ccccc3n2C)cc1` [Compound 4, (E)-1-(1-methyl-1H-indol-2-yl)-N-(4-(methylthio)phenyl)ethan-1-imine] here?
Answer: The value was “concentration dependent reduction of PC3 cell migration, but less efficiently relative to 14”.

Question: For `Cn1c(CNc2ccc(O)cc2)cc2ccccc21` [Compound 5, 4-(((1-methyl-1H-indol-2-yl)methyl)amino)phenol], which “effect on PC3 cell migration” value (PC3 cells) is on record?
Answer: The value was “comparable potency”.

Question: For `CSc1ccc(OC(C)c2cc3ccccc3n2C)cc1` (stereo not drawn) [Compound 10, 1-methyl-2-(1-(4-(methylthio)phenoxy)ethyl)-1H-indole], which “stability in liver microsomes” value [1] is on record?
Answer: Its value is “only stable in the human microsome”.

Question: What about the “effect on PC3 cell migration” value (PC3 cells) of the same compound?
Answer: The value was “less potent compared to 7”.

Question: And the “block of SAHA-stimulated cell migration in PC3 cells” value (PC3 cells)?
Answer: Its value is “blocked the stimulatory effects of docetaxel and SAHA in PC3 cells”.

Question: And the “block of docetaxel-stimulated cell migration in PC3 cells” value (PC3 cells)?
Answer: Its value is “blocked the stimulatory effects of docetaxel and SAHA in PC3 cells”.

Question: What about the “stability in liver microsomes” value [2] of the same compound?
Answer: The value was “only stable in the human microsome”.

Question: For `CC(Oc1ccc([S+](C)[O-])cc1)c1cc2ccccc2n1C` (stereo not drawn) [Compound 13, 1-methyl-2-(1-(4-(methylsulfinyl)phenoxy)ethyl)-1H-indole], which “effect on PC3 cell migration” value (PC3 cells) is on record?
Answer: The value was “less effective, eliciting reduced anti-migration activities relative to the other compounds”.

Question: For `O=C(CCCCCCC(=O)Nc1ccccc1)NO` [SAHA], which “effect of chemotherapeutic drug on cell migration in LNCaP cells” value (LNCaP cells) is on record?
Answer: Its value is “significant dose-dependent increase in cell migration”.

Question: And the “effect of chemotherapeutic drug on cell migration in PC3 cells” value (PC3 cells)?
Answer: Its value is “induced increase in cell migration”.

Question: What about the “effect of chemotherapeutic drug on cell migration in DU145 cells” value (DU145 cells) of the same compound?
Answer: Its value is “increased cell migration”.

Question: Which results are given for `CC1(C)C(=O)N(c2ccc(C#N)c(C(F)(F)F)c2)C(=O)N1Cc1ccc(-c2cn(CCCCC(=O)NO)nn2)cc1` [SBI-I-19]?
Answer: effect of chemotherapeutic drug on cell migration in LNCaP cells (LNCaP cells): significant dose-dependent increase in cell migration; effect of chemotherapeutic drug on cell migration in DU145 cells (DU145 cells): increased cell migration

Question: With `CC(O)(CS(=O)(=O)c1ccc(F)cc1)C(=O)Nc1ccc(C#N)c(C(F)(F)F)c1` (stereo not drawn) [bicalutamide] as the compound, how does the “concentration of maximum induction of cell migration in LNCaP cells” value (LNCaP cells) read?
Answer: The value was 2.5 µM.

Question: For `CC(=O)O[C@@]12CO[C@@H]1C[C@H](O)[C@@]1(C)C(=O)[C@H](O)C3=C(C)[C@@H](OC(=O)[C@H](O)[C@@H](NC(=O)OC(C)(C)C)c4ccccc4)C[C@@](O)([C@@H](OC(=O)c4ccccc4)[C@H]21)C3(C)C` [docetaxel, reference compound], which “effect of chemotherapeutic drug on cell migration in PC3 cells” value (PC3 cells) is on record?
Answer: The value was “induced increase in cell migration”.

Question: Which “concentration of maximum induction of cell migration in LNCaP cells” value (LNCaP cells) does the source give for `CNC(=O)c1ccc(N2C(=S)N(c3ccc(C#N)c(C(F)(F)F)c3)C(=O)C2(C)C)cc1F` [enzalutamide] here?
Answer: Its value is 2.5 µM.

Question: And the “effect of chemotherapeutic drug on cell migration in LNCaP cells” value (LNCaP cells)?
Answer: The value was “dose-dependent increase in cell migration”.

Question: What about the “effect of chemotherapeutic drug on cell migration in DU145 cells” value (DU145 cells) of the same compound?
Answer: Its value is “increased cell migration”.
